Laboratory results: US20250108038A1 (priority 2023, published 2025)
Several values for one entry are separate records, joined by “and”; a condition that tells them apart may be missing. Equal entries are not always repeated.

Tested on: Long Evans rats
Experiment: Behavioral satiety sequence (BSS)
Assay type: in vivo, Long Evans rat
Details: for BSS scoring A (active), Time Bin 13 (60-65 TOTAL), AVG / BSS scoring A (active), Time Bin 14 (65-70 TOTAL), AVG / BSS scoring A (active), Time Bin 15 (70-75 TOTAL), AVG / BSS scoring A (active), Time Bin 16 (75-80 TOTAL), AVG / BSS scoring A (active), Time Bin 17 (80-85 TOTAL), AVG / BSS scoring A (active), Time Bin 18 (85-90 TOTAL), AVG / BSS scoring E (eating/drinking), Time Bin 13 (60-65 TOTAL), AVG / BSS scoring E (eating/drinking), Time Bin 14 (65-70 TOTAL), AVG / BSS scoring E (eating/drinking), Time Bin 15 (70-75 TOTAL), AVG / BSS scoring E (eating/drinking), Time Bin 16 (75-80 TOTAL), AVG / BSS scoring E (eating/drinking), Time Bin 17 (80-85 TOTAL), AVG / BSS scoring E (eating/drinking), Time Bin 18 (85-90 TOTAL), AVG / BSS scoring G (grooming), Time Bin 13 (60-65 TOTAL), AVG / BSS scoring G (grooming), Time Bin 14 (65-70 TOTAL), AVG / BSS scoring G (grooming), Time Bin 15 (70-75 TOTAL), AVG / BSS scoring G (grooming), Time Bin 16 (75-80 TOTAL), AVG / BSS scoring G (grooming), Time Bin 17 (80-85 TOTAL), AVG / BSS scoring G (grooming), Time Bin 18 (85-90 TOTAL), AVG / BSS scoring R (resting), Time Bin 13 (60-65 TOTAL), AVG / BSS scoring R (resting), Time Bin 14 (65-70 TOTAL), AVG / BSS scoring R (resting), Time Bin 15 (70-75 TOTAL), AVG / BSS scoring R (resting), Time Bin 16 (75-80 TOTAL), AVG / BSS scoring R (resting), Time Bin 17 (80-85 TOTAL), AVG / BSS scoring R (resting), Time Bin 18 (85-90 TOTAL), AVG: AVG of animals LT-1 to LT-12
Text: The Behavioural Satiety Sequence (BSS) is a technique used to evaluate physiological satiety. It is based on the expression of a sequence of behaviors including eating, grooming, locomotor activity, followed by resting, which are typically observed in rodents post-ingestion (Halford et al, 1998, Pharmacology Biochemistry and Behaviour. 61(2): 159-168). The BSS is a widely used model for determining the effects of novel pharmaceuticals on food intake and measures of satiety in rodents (Oliveira et al, 2011, Revista de Nutrição. 24(4) 619-628), and to discriminate the cause of reduced food intake following pharmacological manipulation. For example, treatments that may reduce food intake by non-specific mechanisms, such as immobility, malaise, and taste adulteration, will disrupt this sequence (Halford et al, 1998, Pharmacology Biochemistry and Behaviour. 61(2): 159-168).
Specifically, 12 male Long-Evans rats were food-deprived for 22 h with a 2 h feeding period each day. Rats were trained to consume daily food during the 2 h period over 25 days. The testing phase was initiated once the rats consistently consumed 16-18 g of food per day with ≤10% variance in amount of feed consumed. Feeding took place in designated individual boxes in a quiet room separate from the housing room. Continuous remote monitoring via video camera during feeding was used to assess the BSS. Food consumption was measured by weighing the total available food before and after the 2 h feeding window, correcting for spillage. Lorcaserin (1 mg/kg) was included as a reference control (Higgins et al, 2011, Neuropsychopharmacology. 37(5): 1177-1191). Subjects were tested using a repeated-measures, Latin square design with 2-3 days wash-out between treatment cycles.
On scheduled test days, animals were monitored remotely via video camera during the feeding access period. The occurrence of four mutually exclusive behaviors (eating/drinking, grooming, active, rest) were individually scored. Over the 2 h feeding period, behaviors were assessed every 30 seconds. Scores were compiled into 23 5 min timebins (timebin 24 was removed due to early removal of animals) and the frequency of each behavior within each timebin was calculated to determine a temporal frequency of each measure (Rodgers et al, 2010, Pharmacology Biochemistry and Behaviour. 97: 3-14). Percentage time was plotted for each behavioral sequence in each timebin to compare between treatment groups (Higgins et al, 2011, Neuropsychopharmacology. 37(5): 1177-1191).

[1] = 0.1 mg/kg, raw score per animal LT-1 to LT-12
[2] = 0.3 mg/kg, raw score per animal LT-1 to LT-12

Clc1ccc(C2(OCC3OCCO3)c3ccccc3C3=NCCN32)cc1 (stereo not drawn) [Compound I-19]
BSS scoring A (active), Time Bin 13 (60-65 TOTAL), AVG (0.1 mg/kg): 0.20
BSS scoring A (active), Time Bin 14 (65-70 TOTAL), AVG (0.1 mg/kg): 0.10
BSS scoring A (active), Time Bin 15 (70-75 TOTAL), AVG (0.1 mg/kg): 0.13
BSS scoring A (active), Time Bin 16 (75-80 TOTAL), AVG (0.1 mg/kg): 0.23
BSS scoring A (active), Time Bin 17 (80-85 TOTAL), AVG (0.1 mg/kg): 0.36
BSS scoring A (active), Time Bin 18 (85-90 TOTAL), AVG (0.1 mg/kg): 0.22
BSS scoring E (eating/drinking), Time Bin 13 (60-65 TOTAL), AVG (0.1 mg/kg): 0.74
BSS scoring E (eating/drinking), Time Bin 14 (65-70 TOTAL), AVG (0.1 mg/kg): 0.83
BSS scoring E (eating/drinking), Time Bin 15 (70-75 TOTAL), AVG (0.1 mg/kg): 0.83
BSS scoring E (eating/drinking), Time Bin 16 (75-80 TOTAL), AVG (0.1 mg/kg): 0.63
BSS scoring E (eating/drinking), Time Bin 17 (80-85 TOTAL), AVG (0.1 mg/kg): 0.58
BSS scoring E (eating/drinking), Time Bin 18 (85-90 TOTAL), AVG (0.1 mg/kg): 0.71
BSS scoring G (grooming), Time Bin 13 (60-65 TOTAL), AVG (0.1 mg/kg): 0.03
BSS scoring G (grooming), Time Bin 14 (65-70 TOTAL), AVG (0.1 mg/kg): 0.05
BSS scoring G (grooming), Time Bin 15 (70-75 TOTAL), AVG (0.1 mg/kg): 0.01
BSS scoring G (grooming), Time Bin 16 (75-80 TOTAL), AVG (0.1 mg/kg): 0.05
BSS scoring G (grooming), Time Bin 17 (80-85 TOTAL), AVG (0.1 mg/kg): 0.05
BSS scoring G (grooming), Time Bin 18 (85-90 TOTAL), AVG (0.1 mg/kg): 0.02
BSS scoring R (resting), Time Bin 13 (60-65 TOTAL), AVG (0.1 mg/kg): 0.03
BSS scoring R (resting), Time Bin 14 (65-70 TOTAL), AVG (0.1 mg/kg): 0.02
BSS scoring R (resting), Time Bin 15 (70-75 TOTAL), AVG (0.1 mg/kg): 0.03
BSS scoring R (resting), Time Bin 16 (75-80 TOTAL), AVG (0.1 mg/kg): 0.08
BSS scoring R (resting), Time Bin 17 (80-85 TOTAL), AVG (0.1 mg/kg): 0.02
BSS scoring R (resting), Time Bin 18 (85-90 TOTAL), AVG (0.1 mg/kg): 0.06
BSS scoring A (active), Time Bin 13 (60-65 TOTAL) [1]: 0 (5×) and 4 (2×) and 5 and 1 (3×) and 8
BSS scoring A (active), Time Bin 14 (65-70 TOTAL) [1]: 0 (6×) and 1 (2×) and 4 and 2 (3×)
BSS scoring A (active), Time Bin 15 (70-75 TOTAL) [1]: 5 and 3 (3×) and 0 (7×) and 2
BSS scoring A (active), Time Bin 16 (75-80 TOTAL) [1]: 4 (3×) and 3 and 5 (2×) and 0 (4×) and 2 and 1
BSS scoring A (active), Time Bin 17 (80-85 TOTAL) [1]: 0 (3×) and 3 and 9 (2×) and 1 and 6 and 5 and 4 (2×) and 2
BSS scoring A (active), Time Bin 18 (85-90 TOTAL) [1]: 0 (4×) and 1 (2×) and 7 and 3 and 5 (2×) and 2 (2×)
BSS scoring E (eating/drinking), Time Bin 13 (60-65 TOTAL) [1]: 8 (4×) and 5 (2×) and 6 and 10 (3×) and 9 and 2
BSS scoring E (eating/drinking), Time Bin 14 (65-70 TOTAL) [1]: 10 (3×) and 8 (3×) and 9 (3×) and 5 and 7 (2×)
BSS scoring E (eating/drinking), Time Bin 15 (70-75 TOTAL) [1]: 5 and 7 (2×) and 10 (4×) and 9 (3×) and 6 and 8
BSS scoring E (eating/drinking), Time Bin 16 (75-80 TOTAL) [1]: 6 (3×) and 3 (3×) and 10 and 9 (2×) and 8 (2×) and 4
BSS scoring E (eating/drinking), Time Bin 17 (80-85 TOTAL) [1]: 10 (2×) and 7 and 0 and 9 (2×) and 3 and 4 and 5 (2×) and 6 and 2
BSS scoring E (eating/drinking), Time Bin 18 (85-90 TOTAL) [1]: 10 (4×) and 8 (2×) and 7 (3×) and 0 and 5 and 3
BSS scoring G (grooming), Time Bin 13 (60-65 TOTAL) [1]: 0 (9×) and 1 (3×)
BSS scoring G (grooming), Time Bin 14 (65-70 TOTAL) [1]: 0 (6×) and 1 (6×)
BSS scoring G (grooming), Time Bin 15 (70-75 TOTAL) [1]: 0 (11×) and 1
BSS scoring G (grooming), Time Bin 16 (75-80 TOTAL) [1]: 0 (9×) and 4 and 1 (2×)
BSS scoring G (grooming), Time Bin 17 (80-85 TOTAL) [1]: 0 (7×) and 1 (4×) and 2
BSS scoring G (grooming), Time Bin 18 (85-90 TOTAL) [1]: 0 (10×) and 1 (2×)
BSS scoring R (resting), Time Bin 13 (60-65 TOTAL) [1]: 2 and 0 (9×) and 1 (2×)
BSS scoring R (resting), Time Bin 14 (65-70 TOTAL) [1]: 0 (10×) and 1 (2×)
BSS scoring R (resting), Time Bin 15 (70-75 TOTAL) [1]: 0 (9×) and 1 (3×)
BSS scoring R (resting), Time Bin 16 (75-80 TOTAL) [1]: 0 (5×) and 2 and 3 and 1 (5×)
BSS scoring R (resting), Time Bin 17 (80-85 TOTAL) [1]: 0 (10×) and 1 (2×)
BSS scoring R (resting), Time Bin 18 (85-90 TOTAL) [1]: 0 (7×) and 1 (4×) and 3
BSS scoring A (active), Time Bin 13 (60-65 TOTAL), AVG (0.3 mg/kg): 0.09
BSS scoring A (active), Time Bin 14 (65-70 TOTAL), AVG (0.3 mg/kg): 0.13
BSS scoring A (active), Time Bin 15 (70-75 TOTAL), AVG (0.3 mg/kg): 0.32
BSS scoring A (active), Time Bin 16 (75-80 TOTAL), AVG (0.3 mg/kg): 0.13
BSS scoring A (active), Time Bin 17 (80-85 TOTAL), AVG (0.3 mg/kg): 0.17
BSS scoring A (active), Time Bin 18 (85-90 TOTAL), AVG (0.3 mg/kg): 0.23
BSS scoring E (eating/drinking), Time Bin 13 (60-65 TOTAL), AVG (0.3 mg/kg): 0.81
BSS scoring E (eating/drinking), Time Bin 14 (65-70 TOTAL), AVG (0.3 mg/kg): 0.80
BSS scoring E (eating/drinking), Time Bin 15 (70-75 TOTAL), AVG (0.3 mg/kg): 0.56
BSS scoring E (eating/drinking), Time Bin 16 (75-80 TOTAL), AVG (0.3 mg/kg): 0.79
BSS scoring E (eating/drinking), Time Bin 17 (80-85 TOTAL), AVG (0.3 mg/kg): 0.69
BSS scoring E (eating/drinking), Time Bin 18 (85-90 TOTAL), AVG (0.3 mg/kg): 0.62
BSS scoring G (grooming), Time Bin 13 (60-65 TOTAL), AVG (0.3 mg/kg): 0.03
BSS scoring G (grooming), Time Bin 14 (65-70 TOTAL), AVG (0.3 mg/kg): 0.03
BSS scoring G (grooming), Time Bin 15 (70-75 TOTAL), AVG (0.3 mg/kg): 0.04
BSS scoring G (grooming), Time Bin 16 (75-80 TOTAL), AVG (0.3 mg/kg): 0.01
BSS scoring G (grooming), Time Bin 17 (80-85 TOTAL), AVG (0.3 mg/kg): 0.05
BSS scoring G (grooming), Time Bin 18 (85-90 TOTAL), AVG (0.3 mg/kg): 0.10
BSS scoring R (resting), Time Bin 13 (60-65 TOTAL), AVG (0.3 mg/kg): 0.07
BSS scoring R (resting), Time Bin 14 (65-70 TOTAL), AVG (0.3 mg/kg): 0.05
BSS scoring R (resting), Time Bin 15 (70-75 TOTAL), AVG (0.3 mg/kg): 0.08
BSS scoring R (resting), Time Bin 16 (75-80 TOTAL), AVG (0.3 mg/kg): 0.08
BSS scoring R (resting), Time Bin 17 (80-85 TOTAL), AVG (0.3 mg/kg): 0.09
BSS scoring R (resting), Time Bin 18 (85-90 TOTAL), AVG (0.3 mg/kg): 0.06
BSS scoring A (active), Time Bin 13 (60-65 TOTAL) [2]: 0 (7×) and 2 and 3 and 1 (2×) and 4
BSS scoring A (active), Time Bin 14 (65-70 TOTAL) [2]: 1 (4×) and 3 and 0 (6×) and 8
BSS scoring A (active), Time Bin 15 (70-75 TOTAL) [2]: 0 (2×) and 4 (2×) and 6 and 8 and 1 (2×) and 3 (3×) and 5
